{
  "source": "patent US4550179A",
  "about": "“N-(1-Allyl-2-pyrrolidinyl-methyl) 2-methoxy-4-amino-5-methylsulfamoyl benzamide” (Societe d'Etudes Scientifiques et Industrielles de l'Ile-de …, priority 1980, dated 1985)",
  "key": {"mouse": {"test_system": "mouse", "assay": "analgesic action, pain caused by mechanical, chemical or heat stimulus", "assay_type": "in vivo", "conditions": "single dose", "excerpt": "The analgesic action of the benzamide, in a single dose, is weak in respect of the pain caused in a mouse by a mechanical, chemical or heat stimulus."}, "arterial pressure": {"test_system": "arterial pressure", "assay": "arterial pressure in dog anaesthetised with chloralose", "assay_type": "in vivo", "excerpt": "(§1) The effects of the benzamide on the cardiovascular system were studied in a dog anaesthetised with chloralose, with the following results:\nVariations in arterial pressure\n(mg/kg/I.V.) relative to initial pressure"}, "isolated ileum": {"test_system": "isolated ileum", "assay": "anticholinergic action in vitro on isolated ileum", "conditions": "isolated ileum of guinea pig"}, "serotonin": {"test_system": "serotonin", "assay": "hypertensive response to serotonin, anaesthetised dog treated with chlorisondamine", "assay_type": "in vivo", "excerpt": "as §1\n% inhibition of hypertension after […]"}, "[1]": {"conditions": "BATCH 1, 1 mg/kg I.V., serotonin 37.5 μg/kg I.V."}, "[2]": {"conditions": "BATCH 1, 5 mg/kg I.V., serotonin 25 μg/kg I.V."}, "[3]": {"conditions": "BATCH 2, 1 mg/kg I.V., serotonin 25 μg/kg I.V."}, "[4]": {"conditions": "BATCH 2, 5 mg/kg I.V., serotonin 25 μg/kg I.V."}},
  "data": [
    {"compound": "C=CCN1CCCC1CNC(=O)c1cc(S(=O)(=O)NC)c(N)cc1OC", "note": "(stereo not drawn) [Benzamide according to the invention, N-(1-allyl-2-pyrrolidinyl-methyl)2-methoxy-4-amino-5-methylsulfamoyl benzamide]", "values": [
      {"measurement": "analgesic action", "setting": "mouse", "result": "weak"},
      {"measurement": "Variations in arterial pressure relative to initial pressure", "setting": "arterial pressure; cumulative dose 0.5 mg/kg I.V.", "result": -21, "unit": "%"},
      {"measurement": "Variations in arterial pressure relative to initial pressure", "setting": "arterial pressure; cumulative dose 1 mg/kg I.V.", "result": -32, "unit": "%"},
      {"measurement": "Variations in arterial pressure relative to initial pressure", "setting": "arterial pressure; cumulative dose 2 mg/kg I.V.", "result": -36, "unit": "%"},
      {"measurement": "Variations in arterial pressure relative to initial pressure", "setting": "arterial pressure; cumulative dose 4 mg/kg I.V.", "result": -48, "unit": "%"},
      {"measurement": "Variations in arterial pressure relative to initial pressure", "setting": "arterial pressure; cumulative dose 8 mg/kg I.V.", "result": -54, "unit": "%"},
      {"measurement": "Variations in arterial pressure relative to initial pressure", "setting": "arterial pressure; cumulative dose 16 mg/kg I.V.", "result": -59, "unit": "%"},
      {"measurement": "Variations in arterial pressure relative to initial pressure", "setting": "arterial pressure; cumulative dose 32 mg/kg I.V.", "result": -58, "unit": "%"},
      {"measurement": "arterial pressure", "setting": "arterial pressure; dog anaesthetised with chloralose", "result": "drop in arterial pressure proportional to the dose administered"},
      {"measurement": "anticholinergic action", "setting": "isolated ileum", "result": "no anticholinergic action"},
      {"measurement": "% inhibition of hypertension after 3 mn", "setting": "serotonin; [1]", "result": 22, "unit": "%"},
      {"measurement": "% inhibition of hypertension after 30 mn", "setting": "serotonin; [1]", "result": 8, "unit": "%"},
      {"measurement": "% inhibition of hypertension after 3 mn", "setting": "serotonin; [2]", "result": 62, "unit": "%"},
      {"measurement": "% inhibition of hypertension after 30 mn", "setting": "serotonin; [2]", "result": 63, "unit": "%"},
      {"measurement": "% inhibition of hypertension after 1 h", "setting": "serotonin; [2]", "result": 51, "unit": "%"},
      {"measurement": "% inhibition of hypertension after 1 h 30", "setting": "serotonin; [2]", "result": 51, "unit": "%"},
      {"measurement": "% inhibition of hypertension after 2 h", "setting": "serotonin; [2]", "result": 40, "unit": "%"},
      {"measurement": "% inhibition of hypertension after 3 mn", "setting": "serotonin; [3]", "result": 36, "unit": "%"},
      {"measurement": "% inhibition of hypertension after 30 mn", "setting": "serotonin; [3]", "result": 11, "unit": "%"},
      {"measurement": "% inhibition of hypertension after 1 h", "setting": "serotonin; [3]", "result": 0, "unit": "%"},
      {"measurement": "% inhibition of hypertension after 3 mn", "setting": "serotonin; [4]", "result": 78, "unit": "%"},
      {"measurement": "% inhibition of hypertension after 30 mn", "setting": "serotonin; [4]", "result": 65, "unit": "%"},
      {"measurement": "% inhibition of hypertension after 1 h", "setting": "serotonin; [4]", "result": 48, "unit": "%"},
      {"measurement": "% inhibition of hypertension after 1 h 30", "setting": "serotonin; [4]", "result": 43, "unit": "%"},
      {"measurement": "% inhibition of hypertension after 2 h", "setting": "serotonin; [4]", "result": 33, "unit": "%"},
      {"measurement": "% inhibition of hypertension after 3 h", "setting": "serotonin; BATCH 2, 5 mg/kg I.V., serotonin 25 μg/kg I.V., 3 h", "result": 33, "unit": "%"},
      {"measurement": "hypertensive response to serotonin", "setting": "serotonin; anaesthetised dog, chlorisondamine", "result": "reduces the hypertensive response to serotonin"}
    ]}
  ]
}
